Assay results reported in ChEMBL document CHEMBL1124878, “Synthesis, phencyclidine-like pharmacology, and antiischemic potential of meta-substituted 1-(1-phenylcyclohexyl)-1,2,3,6-tetrahydropyridines” (J Med Chem, 1990).

Experiments:
[1] = target: T1, Glutamate receptor ionotropic, NMDA 2C (Rattus norvegicus, UniProt Q00961); test: Ability to displace [3H]TCP from PCP receptor in tissue homogenate preparation of fresh whole rat brain minus cerebellum.; format: tissue-based
[2] = target: T1, Glutamate receptor ionotropic, NMDA 2C; test: Ability to displace [3H]- TCP from PCP receptor in tissue homogenate preparation of fresh whole rat brain minus cerebellum.; format: tissue-based

T1 sequence (Q00961 whole entry): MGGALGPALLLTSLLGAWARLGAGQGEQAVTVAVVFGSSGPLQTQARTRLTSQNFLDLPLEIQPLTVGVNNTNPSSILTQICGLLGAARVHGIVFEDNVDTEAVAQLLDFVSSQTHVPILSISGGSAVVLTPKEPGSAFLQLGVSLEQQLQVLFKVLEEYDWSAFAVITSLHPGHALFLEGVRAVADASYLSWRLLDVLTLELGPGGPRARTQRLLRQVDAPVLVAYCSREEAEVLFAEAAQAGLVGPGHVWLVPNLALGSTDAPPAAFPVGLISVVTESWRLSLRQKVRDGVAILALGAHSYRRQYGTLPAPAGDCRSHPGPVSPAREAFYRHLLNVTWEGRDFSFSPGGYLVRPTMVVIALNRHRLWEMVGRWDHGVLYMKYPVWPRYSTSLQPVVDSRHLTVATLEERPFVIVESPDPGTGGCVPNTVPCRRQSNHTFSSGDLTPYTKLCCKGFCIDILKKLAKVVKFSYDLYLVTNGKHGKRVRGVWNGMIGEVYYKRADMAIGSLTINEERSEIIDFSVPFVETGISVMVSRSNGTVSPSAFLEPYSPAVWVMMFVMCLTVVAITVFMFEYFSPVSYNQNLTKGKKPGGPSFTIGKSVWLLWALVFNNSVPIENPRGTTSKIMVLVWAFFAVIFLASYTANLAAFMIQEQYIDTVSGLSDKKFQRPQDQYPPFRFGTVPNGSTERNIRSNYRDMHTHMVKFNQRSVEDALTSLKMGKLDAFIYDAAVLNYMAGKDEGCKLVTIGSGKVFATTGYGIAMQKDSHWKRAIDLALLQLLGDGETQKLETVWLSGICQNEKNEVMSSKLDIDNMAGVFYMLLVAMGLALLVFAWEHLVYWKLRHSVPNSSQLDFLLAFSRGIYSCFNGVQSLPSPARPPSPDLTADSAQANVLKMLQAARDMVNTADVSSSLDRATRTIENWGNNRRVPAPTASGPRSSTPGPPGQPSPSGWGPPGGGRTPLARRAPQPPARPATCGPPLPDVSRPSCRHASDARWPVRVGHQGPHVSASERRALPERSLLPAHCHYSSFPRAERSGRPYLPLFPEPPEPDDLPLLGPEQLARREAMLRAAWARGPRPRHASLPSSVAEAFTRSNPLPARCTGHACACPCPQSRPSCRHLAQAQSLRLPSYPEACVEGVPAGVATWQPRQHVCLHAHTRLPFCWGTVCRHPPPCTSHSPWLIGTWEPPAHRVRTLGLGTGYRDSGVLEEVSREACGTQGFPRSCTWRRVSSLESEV

Structure (SMILES): C1=CCN(C2(c3cccc(C4OCCO4)c3)CCCCC2)CC1
- Ki [1]: 601 nM

Structure (SMILES): C1=CCN(C2(c3ccccc3)CCCCC2)CC1
- Ki [2]: 37 nM

Structure (SMILES): COCOc1cccc(C2(N3CC=CCC3)CCCCC2)c1
- Ki [2]: 92 nM

Structure (SMILES): Oc1cccc(C2(N3CC=CCC3)CCCCC2)c1
- Ki [1]: 7 nM

Structure (SMILES): COc1cc(OC)cc(C2(N3CC=CCC3)CCCCC2)c1
- Ki [1]: 8600 nM

Structure (SMILES): Fc1cccc(C2(N3CC=CCC3)CCCCC2)c1
- Ki [2]: 281 nM

Structure (SMILES): Cc1cccc(C2(N3CC=CCC3)CCCCC2)c1
- Ki [2]: 81 nM

Structure (SMILES): CC(=O)Oc1cccc(C2(N3CC=CCC3)CCCCC2)c1
- Ki [2]: 6 nM

Structure (SMILES): CSc1cccc(C2(N3CC=CCC3)CCCCC2)c1
- Ki [2]: 231 nM

Structure (SMILES): O/N=C/c1cccc(C2(N3CC=CCC3)CCCCC2)c1
- Ki [1]: 56 nM

Structure (SMILES): C1=CCN(C2(c3cccc(OCc4ccccc4)c3)CCCCC2)CC1
- Ki [1]: 733 nM

Structure (SMILES): COc1cccc(C2(N3CC=CCC3)CCCCC2)c1
- Ki [1]: 33 nM

Structure (SMILES): C1=CCN(C2(c3cccs3)CCCCC2)CC1
- Ki [1]: 12 nM

Structure (SMILES): FC(F)(F)c1cccc(C2(N3CC=CCC3)CCCCC2)c1
- Ki [2]: 422 nM

Structure (SMILES): O=Cc1cccc(C2(N3CC=CCC3)CCCCC2)c1
- Ki [2]: 324 nM

Structure (SMILES): C=Cc1cccc(C2(N3CC=CCC3)CCCCC2)c1
- Ki [2]: 114 nM
